Results: patent US7772180B2, “Hepatitis C virus inhibitors” (Bristol-Myers Squibb Company, priority 2006, dated 2010)

Key:
[1] = tested on: HCV replicon with Renilla luciferase reporter in HUH-7 cells; assay: HCV replicon luciferase reporter assay; assay type: cell-based, Hepatitis C virus
Source text: An HCV replicon whole cell system was established as described by Lohmann V, Korner F, Koch J, Herian U, Theilmann L, Bartenschlager R., Science 285(5424): 110-3 (1999). This system enabled us to evaluate the effects of our HCV Protease compounds on HCV RNA replication. Briefly, using the HCV strain 1b sequence described in the Lohmann paper (Assession number: AJ238799), an HCV cDNA was synthesized by Operon Technologies, Inc. (Alameda, Calif.), and the full-length replicon was then assembled in plasmid pGem9zf(+) (Promega, Madison, Wis.) using standard molecular biology techniques. The replicon consists of (i) the HCV 5′ UTR fused to the first 12 amino acids of the capsid protein, (ii) the neomycin phosphotransferase gene (neo), (iii) the IRES from encephalomyocarditis virus (EMCV), and (iv) HCV NS3 to NS5B genes and the HCV 3′ UTR. […]
As a secondary assay, EC50 determinations from the replicon FRET assay were confirmed in a replicon luciferase reporter assay. […] Following 4 days in a 37° C./5% CO2 incubator, cells were analyzed for Renilla Luciferase activity using the Promega Dual-Glo Luciferase Assay System. […] Plates were read on a Packard TopCount NXT using a luminescence program.
The percentage inhibition was calculated using the formula below: […]
The values were graphed and analyzed using XLfit to obtain the EC50 value.

[2] = molecular target: T1, human neutrophil elastase (HNE) (Homo sapiens, UniProt P08246); assay: Specificity assay, human neutrophil elastase; assay type: biochemical; conditions: read-out: HLE activity in the specificity assays (IC50)
T1 construct: purchased Sigma, EMDbiosciences
T1 sequence (P08246 30-267): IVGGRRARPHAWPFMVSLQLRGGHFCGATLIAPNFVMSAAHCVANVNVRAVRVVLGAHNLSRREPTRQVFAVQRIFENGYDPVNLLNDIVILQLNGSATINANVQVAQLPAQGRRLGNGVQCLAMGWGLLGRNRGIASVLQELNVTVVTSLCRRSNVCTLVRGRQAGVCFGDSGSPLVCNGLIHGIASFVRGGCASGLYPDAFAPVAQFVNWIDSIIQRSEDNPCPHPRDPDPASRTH
Protocol: The specificities of compounds of the present disclosure were determined against a variety of serine proteases: human neutrophil elastase (HNE), porcine pancreatic elastase (PPE) and human pancreatic chymotrypsin and one cysteine protease: human liver cathepsin B. In all cases a 96-well plate format protocol using either colorimetric p-nitroaniline (pNA) substrate or fluorometric Amino-Methyl-Coumarin (AMC) specific for each enzyme was used as described previously (PCT Patent Application No. WO 00/09543) with some modifications to the serine protease assays. All enzymes were purchased from Sigma, EMDbiosciences while the substrates were from Bachem, Sigma and EMDbiosciences.
The pNA assay for Chymotrypsin included a 1 h enzyme-inhibitor pre-incubation at room temperature followed by addition of substrate and hydrolysis to ˜15% conversion as measured on a Spectramax Pro microplate reader. Compound concentrations varied from 100 to 0.4 μM depending on their potency. Cathepsin B, HNE, and PPE assays each was initiated by addition of substrate to enzyme-inhibitor pre-incubated for 10 min at room temperature and hydrolysis to 15% conversion as measured on cytofluor.
50 mM Tris-HCl, pH 8.0, 50 mM NaCl, 0.1 mM EDTA, 3% DMSO, 0.02% Tween-20, 5 μM succ-AAPV-AMC and 20 nM HNE or 8 nM PPE;
The percentage of inhibition was calculated using the formula: [1−((UVinh−UVblank)/(UVctl−UVblank))]×100 […]

In the case of `C=C[C@@H]1C[C@]1(NC(=O)[C@@H]1C[C@@H](Oc2nc(N(C)C)cc3cc(OC)ccc23)CN1C(=O)C(Nc1cc(C)cc(C)n1)C(C)(C)C)C(=O)NS(=O)(=O)C1CC1` (single isomer, unassigned) [Compound 18], the EC50 [1] is reported as 1.1 nM and the IC50 [2] is reported as over 1560 nM.
